“Also recorded” adds a separate entry of the source.
How the values were obtained:
[1] = system: rats; experiment: Spatial delayed alternation task in a T maze (working memory); assay type: in vivo, rat
Protocol: (§1) The influence of PKC activation on prefrontal cortical function was tested in rats and monkeys performing spatial working memory tasks that are critically dependant upon the integrity of the prefrontal cortex. All procedures were approved by the Yale Institutional Animal Care and Use Committee. Rats were trained on the spatial delayed alternation task in a T maze, or on a control task, spatial discrimination, which has similar motor and motivational demands but depends upon the posterior cortex and not the prefrontal cortex. Performance on the delayed alternation task is dependant upon the length of the delay between trials. The delay was raised as needed to maintain each individual animals performance at approximately 70% correct, allowing room for improvement or impairment in performance following drug administration.
Following behavioral training, rats were implanted with guide cannulae to allow drug infusions into the prefrontal cortex (stereotaxic coordinates from bregma and skull surface: anterior +3.2 mm, lateral ±0.75 mm, ventral −1.7 mm). The infusion needles projected 2.8 mm below the guide cannula such that the infusion site was −4.5 mm ventral to skull surface. Rats were allowed to recover for one week following surgery. Drug treatments were administered only after the animal achieved stable performance (60-80% correct) for two consecutive days. […] The PMA-induced working memory impairment was blocked by co-administration of chelerythrine, which had no effect on performance when administered alone (FIG. 10A). In contrast, PMA (5 picograms PMA/0.5 μl) had no effect on performance of the control spatial discrimination task (10 sec delays, mean performance after vehicle: 92.0%±11.0%, mean performance after PMA: 88.0%±13.0%, p=0.587, Tdep test).
(§2) NE α-1 adrenergic receptors are positively coupled to PKC through a Gq-protein linked to the PI intracellular signaling pathway (FIG. 1). Previous studies have shown that infusion of the α-1 adrenergic receptor agonist, phenylephrine, into the prefrontal cortex impairs working memory in both rats (Arnsten et al., 1999; FIGS. 2, 6 and 10B) and monkeys (Mao et al, 1999). Likewise, systemic injections of cirazoline, an α-1 adrenergic receptor agonist that crosses the blood brain barrier, impairs working memory in monkeys (FIGS. 5 and 10C). Thus, PKC was activated indirectly by infusing phenylephrine into the prefrontal cortex in rats (5 min prior to cognitive testing), or by systemic administration of cirazoline in monkeys (intramuscular injections, 30 min prior to cognitive testing). Monkeys had been previously trained on the spatial delayed response task, the task most commonly used to assess prefrontal cortical function in nonhuman primates. The PKC inhibitor, chelerythrine, was administered directly into the prefrontal cortex in rats (5 min prior to cognitive testing), or systemically in monkeys (oral administration, 60 min prior to cognitive testing).
(§3) The anxiogenic stressor, FG7142, was administered systemically to rats (interperitonial injection) or monkeys (intramuscular injection) 30 min prior to cognitive testing. Chelerythrine was administered directly into the prefrontal cortex in rats (15 min prior to cognitive testing), or systemically in monkeys (oral administration, 60 min prior to cognitive testing). […] This cognitive impairment was blocked by chelerythrine (FIGS. 11A and 11B), consistent with stress-induced activation of PKC.
(§4) Rats were injected with 0, 0.3, or 3.0 mg/kg chelerythrine s.c. in water approximately 45 minutes before cognitive testing; they receive an injection of the pharmacological stressor, FG7142 (15 mg/kg, i.p.) or vehicle 30 minutes prior to cognitive testing. All drug treatments occur at least one week apart, and the order of treatments is counterbalanced between animals. […] All ratings were performed by experimenters who were very familiar with the normative behavior of the animal but were unaware of the drug treatment conditions.

[2] = system: rhesus monkeys; experiment: Spatial delayed response task (working memory); assay type: in vivo, rhesus monkey
Text: as §2, §3
(§5) Chelerythrine was administered orally to rhesus monkeys at doses of either […] or 0.3 mg/kg 60 min before cognitive testing, 30 minutes prior to stress exposure (FG7142 0.2-1.0 mg/kg, i.m.). In addition to cognitive testing, monkeys are also assessed for changes in sedation, agitation, aggression, motivation, food intake, and both fine and gross motor abilities. Four monkeys were tested.

[3] = system: rats; experiment: Behavioral observations for side effects in home cage and during cognitive testing; assay type: in vivo, rat; settings: 0.3 or 3.0 mg/kg s.c.
Protocol: as §4

[4] = system: rats; experiment: Response time per trial (stress-induced freezing) during delayed alternation testing; assay type: in vivo, rat
Protocol: FIG. 11 illustrates a summary whereby treatment with chelerythrine reverses the detrimental effects of: A. stress in rats; or B. stress in monkeys. […] In A, the anxiogenic stressor, FG7142 (range: 10 to 20 mg/kg), impaired delayed alternation performance compared to vehicle treatment in rats (vehicle+vehicle vs. FG7142+vehicle: * ANOVA-R, F1,10=25.095, p=0.001). The FG7142-induced cognitive deficit was reversed by infusion of the PKC inhibitor, chelerythrine, into the prefrontal cortex 15 min prior to testing (0.3 μg/0.5 μl; FG7142+vehicle vs. FG7142+chelerythrine: † F1,10=10.170, p=0.010). […] The FG7142-induced cognitive deficit was reversed by pretreatment with the PKC inhibitor, chelerythrine (0.03 mg/kg; FG7142+vehicle vs. FG7142+chelerythrine: † F1,4=21.23, p=0.006).
For example, stressors such as FG7142 induce freezing behaviors in rodents that effectively lengthen the delays and increase the memory demands of the task (FIG. 11C).

[5] = system: rhesus monkeys; experiment: Assessment of sedation, agitation, aggression, motivation, food intake and motor abilities; assay type: in vivo, rhesus monkey; settings: oral 0.03 or 0.3 mg/kg
Protocol: as §5

[6] = system: rats; experiment: Spatial discrimination control task; assay type: in vivo, rat; settings: 5 picograms PMA/0.5 μl
Protocol: as §1
Following behavioral training, rats were implanted with guide cannulae to allow drug infusions into the prefrontal cortex (stereotaxic coordinates from bregma and skull surface: anterior +3.2 mm, lateral ±0.75 mm, ventral −1.7 mm). The infusion needles projected 2.8 mm below the guide cannula such that the infusion site was −4.5 mm ventral to skull surface. Rats were allowed to recover for one week following surgery. Drug treatments were administered only after the animal achieved stable performance (60-80% correct) for two consecutive days. […]

[7] = system: rats; settings: cited from earlier work
[8] = co-infusion into prefrontal cortex, chelerythrine 0.3 μg/0.5 μl

Question: Which “effect on detrimental effects of stress exposure, lower systemic dose” value ([1]; 0.3 mg/kg s.c., 45 min before testing, FG7142 15 mg/kg i.p., p=0.018, n=4) does the source give for `COc1ccc2c(c[n+](C)c3c4cc5c(cc4ccc23)OCO5)c1OC.[Cl-]` [chelerythrine, 1,2-dimethoxy-12-methyl[1,3]benzodioxolo[5,6-c]phenanthridinium] here?
Answer: Its value is “significantly reversed”.

Question: What about the “effect on cognitive deficits due to stress, higher systemic dose” value ([1]; 3.0 mg/kg s.c., FG7142 15 mg/kg i.p.) of the same molecule?
Answer: Its value is “did not reverse”.

Question: What about the “average correct, drug on its own” value ([1]; 3.0 mg/kg s.c., no stressor, similar to vehicle) of the same molecule?
Answer: Its value is 72.5 % correct.

Question: What about the “effect on PMA-induced working memory deficit” value [1, 8] of the same molecule?
Answer: The value was “reversed; also recorded: blocked”.

Question: What about the “effect on phenylephrine-induced working memory deficit” value [1, 8] of the same molecule?
Answer: Its value is “significantly reversed”.

Question: What about the “effect on FG7142 (stress)-induced cognitive deficit” value ([1]; infusion into prefrontal cortex 0.3 μg/0.5 μl, 15 min prior to testing) of the same molecule?
Answer: Its value is “significantly reversed”.

Question: What about the “effect on stress response (cognitive deficit), higher infused dose” value ([1]; infusion into prefrontal cortex 3.0 μg/0.51 μl) of the same molecule?
Answer: Its value is “did not reverse”.

Question: What about the “performance when higher dose infused by itself” value ([1]; infusion into prefrontal cortex 3.0 μg/0.51 μl, no stress) of the same molecule?
Answer: Its value is “no effect”.

Question: And the “delayed alternation performance, drug on its own” value ([1]; infusion into prefrontal cortex, 0.3 μg/0.5 μl, no challenge)?
Answer: The value was “no effect”.

Question: And the “effect on FG7142-induced cognitive deficit” value ([2]; monkeys, chelerythrine pretreatment 0.03 mg/kg)?
Answer: The value was “reversed”.

Question: What about the “effect on cirazoline-induced working memory deficit” value ([2]; monkeys, chelerythrine pretreatment 0.03 mg/kg oral, 60 min prior to testing) of the same molecule?
Answer: Its value is “reversed”.

Question: What about the “delayed response (cognitive) performance, drug on its own” value ([2]; monkeys, oral chelerythrine, no challenge) of the same molecule?
Answer: The value was “no effect”.

Question: And the “share of monkeys with complete protection at the lower dose” value ([2]; rhesus monkeys, 0.03 mg/kg oral, other half required 0.3 mg/kg for full reversal)?
Answer: The value was “Half of the monkeys showed complete protection”.

Question: What about the “effect on detrimental effects of stress on prefrontal cortical function” value ([2]; rhesus monkeys, oral 0.03/kg or 0.3 mg/kg 60 min before testing, FG7142 0.2-1.0 mg/kg i.m., n=4, p<0.05) of the same molecule?
Answer: The value was “significantly reversed”.

Question: And the “side effects with administration by itself” value [3]?
Answer: The value was “no significant side effects”.

Question: And the “effect on FG7142-induced increased response time” value ([4]; chelerythrine infused into prefrontal cortex)?
Answer: Its value is “not blocked; also recorded: no effect on response time”.

Question: What about the “tolerability / side effects” value [5] of the same molecule?
Answer: Its value is “well-tolerated with no side effects”.

Question: Which “delayed alternation performance after α-1 agonist infusion vs vehicle” value ([1]; phenylephrine 0.1 μg/0.5 μl into prefrontal cortex, 5 min prior to testing) does the source give for `CNC[C@H](O)c1cccc(O)c1` [phenylephrine, reference compound] here?
Answer: Its value is “significantly impaired”.

Question: Which “effect on performance of control spatial discrimination task” value [6] does the source give for `CCCCCCCCCCCCCC(=O)O[C@@H]1[C@@H](C)[C@@]2(O)[C@@H](C=C(CO)C[C@]3(O)C(=O)C(C)=C[C@@H]23)[C@@H]2C(C)(C)[C@]12OC(C)=O` [PMA, phorbol 12-myristate 13-acetate] here?
Answer: The value was “no effect”.

Question: What about the “mean performance on control spatial discrimination task” value ([6]; 10 sec delays, vehicle 92.0%±11.0%, p=0.587) of the same molecule?
Answer: The value was 88.0%±13.0%.

Question: What about the “delayed alternation performance after direct PKC activation vs vehicle” value ([1]; PMA infused into prefrontal cortex, 0.05 to 5 pg/0.5 μl, 10 min prior to testing) of the same molecule?
Answer: The value was “significantly impaired”.

Question: For `COc1ccccc1N1CCN(CCCNc2cc(=O)n(C)c(=O)n2C)CC1` [urapidil], which “effect on phenylephrine-induced working memory impairment (FIG. 2)” value ([7]; co-infusion of urapidil into prefrontal cortex) is on record?
Answer: Its value is “prevented”.

Question: What about the “effect on stress-induced working memory impairment (FIG. 3)” value ([7]; urapidil infused into prefrontal cortex) of the same molecule?
Answer: The value was “prevented”.

Question: With `c1ccc(C2CC2)c(OCC2=NCCN2)c1` [cirazoline, reference compound] as the molecule, how does the “delayed response performance after α-1 agonist vs vehicle” value ([2]; monkeys, cirazoline 0.001 to 10 μg/kg intramuscular, 30 min prior to testing) read?
Answer: Its value is “significantly impaired”.

Question: What does the source list for `CNC(=O)c1cc2c(cn1)[nH]c1ccccc12` [FG7142, reference compound]?
Answer: delayed alternation performance after stressor vs vehicle ([1]; FG7142 10 to 20 mg/kg, 30 min prior to testing): impaired; delayed response performance after stressor vs vehicle ([2]; monkeys, FG7142 0.2 to 2.0 mg/kg injection): significantly impaired; average response time for each trial after stressor vs vehicle ([4]; FG7142): increased response time

Source: patent US20050070565A1, “Chelerythrine, analogs thereof and their use in the treatment of bipolar disorder and other cognitive disorders” (priority 2003, published 2005)
